The supplement of paper PMC13207355

How the values were obtained:
Conditions in all cases: exposure time: 72 h
[1] = tested on: E28 (patient-derived glioblastoma stem cells of classical subtype); assay: phenotypic distance (Euclidean, principal components) from DMSO controls (arbitrary units); higher = stronger morphological change
[2] = tested on: E34 (patient-derived glioblastoma stem cells of proneural subtype); assay: as above
[3] = tested on: FT3469 (normal neural stem cell line); assay: as above
[4] = tested on: E57 (patient-derived glioblastoma stem cells of mesenchymal subtype); assay: as above
[5] = tested on: E13 (patient-derived glioblastoma stem cells of classical subtype); assay: as above
[6] = tested on: E31 (patient-derived glioblastoma stem cells of proneural subtype); assay: as above
[7] = tested on: E21 (patient-derived glioblastoma stem cells of mesenchymal subtype); assay: as above
[8] = tested on: E28; assay: surviving fraction (nuclei count normalised to DMSO); higher = more cells surviving (less toxic)
[9] = tested on: E34; assay: as above
[10] = tested on: FT3469; assay: as above
[11] = tested on: E57; assay: as above
[12] = tested on: E13; assay: as above
[13] = tested on: E31; assay: as above
[14] = tested on: E21; assay: as above
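For phenotypic distance (Euclidean, principal components) from DMSO controls in this document: cell Painting imaging in 384-well plates, CellProfiler features reduced to at least 20 principal components, Euclidean distance versus same-plate DMSO vehicle wells (0.1% v/v), median over six images per well.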
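For surviving fraction (nuclei count normalised to DMSO) in this document: nuclei counted by high-content imaging of Hoechst-stained cells in laminin-coated 384-well plates, relative to 0.1% DMSO vehicle wells, with staurosporine as cell-death control.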

O=C1CC[C@@H](C(=O)N2CSC[C@H]2C(=O)O)N1 [Pidotimod]
Conditions	phenotypic distance	surviving fraction
[1], 4.1 nM	0.887	–
[1], 12.3 nM	1.4	–
[1], 37 nM	0.401	–
[1], 111.1 nM	0.59	–
[1], 333.3 nM	0.551	–
[1], 1000 nM	0.647	–
[1], 3000 nM	0.608	–
[2], 4.1 nM	0.643	–
[2], 12.3 nM	0.613	–
[2], 37 nM	0.723	–
[2], 111.1 nM	0.721	–
[2], 333.3 nM	0.963	–
[2], 1000 nM	0.89	–
[2], 3000 nM	0.949	–
[3], 4.1 nM	0.84	–
[3], 12.3 nM	0.912	–
[3], 37 nM	0.359	–
[3], 111.1 nM	0.641	–
[3], 333.3 nM	0.526	–
[3], 1000 nM	0.625	–
[3], 3000 nM	0.629	–
[4], 4.1 nM	0.799	–
[4], 12.3 nM	1.03	–
[4], 37 nM	0.543	–
[4], 111.1 nM	0.877	–
[4], 333.3 nM	0.527	–
[4], 1000 nM	0.924	–
[4], 3000 nM	0.651	–
[5], 4.1 nM	0.802	–
[5], 12.3 nM	0.46	–
[5], 37 nM	0.672	–
[5], 111.1 nM	0.456	–
[5], 333.3 nM	3.33	–
[5], 1000 nM	0.449	–
[5], 3000 nM	0.493	–
[6], 4.1 nM	0.386	–
[6], 12.3 nM	0.576	–
[6], 37 nM	0.777	–
[6], 111.1 nM	0.985	–
[6], 333.3 nM	0.492	–
[6], 1000 nM	0.921	–
[6], 3000 nM	0.594	–
[7], 4.1 nM	0.591	–
[7], 12.3 nM	0.496	–
[7], 37 nM	0.601	–
[7], 111.1 nM	0.694	–
[7], 333.3 nM	0.815	–
[7], 1000 nM	0.785	–
[7], 3000 nM	0.805	–
[8], 4.1 nM	–	1.2
[8], 12.3 nM	–	1.02
[8], 37 nM	–	0.964
[8], 111.1 nM	–	1.11
[8], 333.3 nM	–	1.04
[8], 1000 nM	–	1.16
[8], 3000 nM	–	0.954
[9], 4.1 nM	–	0.98
[9], 12.3 nM	–	0.951
[9], 37 nM	–	0.786
[9], 111.1 nM	–	1.09
[9], 333.3 nM	–	0.996
[9], 1000 nM	–	1.04
[9], 3000 nM	–	1.04
[10], 4.1 nM	–	0.972
[10], 12.3 nM	–	1.13
[10], 37 nM	–	0.987
[10], 111.1 nM	–	1.06
[10], 333.3 nM	–	1.01
[10], 1000 nM	–	1.01
[10], 3000 nM	–	0.933
[11], 4.1 nM	–	1.07
[11], 12.3 nM	–	0.938
[11], 37 nM	–	1.02
[11], 111.1 nM	–	1.11
[11], 333.3 nM	–	0.978
[11], 1000 nM	–	1
[11], 3000 nM	–	1.03
[12], 4.1 nM	–	0.925
[12], 12.3 nM	–	1.01
[12], 37 nM	–	0.97
[12], 111.1 nM	–	1
[12], 333.3 nM	–	1.06
[12], 1000 nM	–	1.01
[12], 3000 nM	–	0.913
[13], 4.1 nM	–	1.08
[13], 12.3 nM	–	1.02
[13], 37 nM	–	1.01
[13], 111.1 nM	–	1.11
[13], 333.3 nM	–	0.994
[13], 1000 nM	–	1.17
[13], 3000 nM	–	0.845
[14], 4.1 nM	–	0.96
[14], 12.3 nM	–	1
[14], 37 nM	–	0.984
[14], 111.1 nM	–	1.08
[14], 333.3 nM	–	0.991
[14], 1000 nM	–	0.96
[14], 3000 nM	–	0.947
